Laboratory results as given in ChEMBL document CHEMBL1201862, “PubChem BioAssay data set” (2004).
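Dose response: 5 concentrations. Exposure: 48 h. Format: 96-well plates. Endpoint: linear interpolation; highest concentration if not reached. GI50 = concentration required for 50% inhibition of growth.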 Activity calls are given as the source filed them. Rule as the data show it: active = GI50 up to about 1.1 µM and inactive = higher.

What was measured:
Test in all cases: NCI-60 cell line screen, 48 h
[1] = tested on: 786-0
[2] = tested on: A498
[3] = tested on: A549
[4] = tested on: ACHN
[5] = tested on: BT-549
[6] = tested on: CAKI-1
[7] = tested on: CCRF-CEM
[8] = tested on: COLO 205
[9] = tested on: DU-145
[10] = tested on: EKVX
[11] = tested on: HCC 2998
[12] = tested on: HCT-116
[13] = tested on: HCT-15
[14] = tested on: HL-60
[15] = tested on: HOP-62
[16] = tested on: HT-29
[17] = tested on: Hs-578T
[18] = tested on: IGROV-1
[19] = tested on: K562
[20] = tested on: KM12
[21] = tested on: LOX IMVI
[22] = tested on: M14
[23] = tested on: MCF7
[24] = tested on: MDA-MB-231
[25] = tested on: MDA-MB-435
[26] = tested on: MDA-N
[27] = tested on: MOLT-4
[28] = tested on: NCI-H226
[29] = tested on: NCI-H23
[30] = tested on: NCI-H460
[31] = tested on: NCI-H522
[32] = tested on: NCI/ADR-RES
[33] = tested on: OVCAR-3
[34] = tested on: OVCAR-4
[35] = tested on: OVCAR-5
[36] = tested on: OVCAR-8
[37] = tested on: PC-3
[38] = tested on: RPMI-8226
[39] = tested on: RXF 393
[40] = tested on: SF-268
[41] = tested on: SF-295
[42] = tested on: SK-MEL-28
[43] = tested on: SK-MEL-2
[44] = tested on: SK-MEL-5
[45] = tested on: SK-OV-3
[46] = tested on: SN12C
[47] = tested on: SNB-19
[48] = tested on: SNB-75
[49] = tested on: SR
[50] = tested on: SW-620
[51] = tested on: T47D
[52] = tested on: TK-10
[53] = tested on: U-251
[54] = tested on: UACC-257
[55] = tested on: UACC-62
[56] = tested on: UO-31
[57] = tested on: Malme-3M
[58] = tested on: SF-539
[59] = tested on: HOP-92

O=C1Nc2ccccc2/C1=N/N=c1\cccc[nH]1
GI50 [1]: 12.9 µM (inactive) | GI50 [2]: 25.8 µM (inactive) | GI50 [3]: 48.8 µM (inactive) | GI50 [4]: 11 µM (inactive) | GI50 [5]: 43.6 µM (inactive) | GI50 [6]: 32.8 µM (inactive) | GI50 [7]: 18.8 µM (inactive) | GI50 [8]: 33.7 µM (inactive) | GI50 [9]: 21 µM (inactive) | GI50 [10]: 14.5 µM (inactive) | GI50 [11]: 23.7 µM (inactive) | GI50 [12]: 11.6 µM (inactive) | GI50 [13]: 30.3 µM | GI50 [14]: 16 µM (inactive) | GI50 [15]: 34.1 µM (inactive) | GI50 [16]: 22.2 µM (inactive) | GI50 [17]: 39.1 µM (inactive) | GI50 [18]: 1 µM (active) | GI50 [19]: 52.5 µM (inactive) | GI50 [20]: 10.8 µM (inactive) | GI50 [21]: 28.8 µM (inactive) | GI50 [22]: > 100 µM (inactive) | GI50 [23]: 8.17 µM (inactive) | GI50 [24]: 12.6 µM (inactive) | GI50 [25]: > 100 µM (inactive) | GI50 [26]: > 100 µM (inactive) | GI50 [27]: 49.3 µM (inactive) | GI50 [28]: 16.1 µM (inactive) | GI50 [29]: 28.2 µM (inactive) | GI50 [30]: 14.6 µM (inactive) | GI50 [31]: 17.1 µM (inactive) | GI50 [32]: 10.2 µM (inactive) | GI50 [33]: 48.8 µM (inactive) | GI50 [34]: 20.2 µM (inactive) | GI50 [35]: 51.5 µM (inactive) | GI50 [36]: 11.9 µM (inactive) | GI50 [37]: 52.8 µM (inactive) | GI50 [38]: 20.6 µM (inactive) | GI50 [39]: 97.3 µM (inactive) | GI50 [40]: 35.4 µM (inactive) | GI50 [41]: 51.9 µM (inactive) | GI50 [42]: > 100 µM (inactive) | GI50 [43]: > 100 µM (inactive) | GI50 [44]: 40.4 µM (inactive) | GI50 [45]: 18.6 µM (inactive) | GI50 [46]: 29.2 µM (inactive) | GI50 [47]: 30.7 µM (inactive) | GI50 [48]: 21.5 µM (inactive) | GI50 [49]: 14.3 µM (inactive) | GI50 [50]: > 100 µM (inactive) | GI50 [51]: 38.5 µM (inactive) | GI50 [52]: 22.5 µM (inactive) | GI50 [53]: 19 µM (inactive) | GI50 [54]: 41.8 µM (inactive) | GI50 [55]: 65.5 µM (inactive) | GI50 [56]: 12.1 µM (inactive)

CCOC(=O)c1cc(C2=CCNC2=O)c(-c2cc(C)no2)[nH]1
GI50 [1]: 40 µM (inactive) | GI50 [2]: > 100 µM (inactive) | GI50 [3]: 37.4 µM (inactive) | GI50 [4]: 52.1 µM (inactive) | GI50 [5]: > 100 µM (inactive) | GI50 [6]: > 100 µM (inactive) | GI50 [7]: 34 µM (inactive) | GI50 [8]: 54.8 µM (inactive) | GI50 [9]: > 100 µM (inactive) | GI50 [10]: 59.4 µM (inactive) | GI50 [11]: > 100 µM (inactive) | GI50 [12]: 31.1 µM (inactive) | GI50 [13]: 92.9 µM | GI50 [14]: 22.3 µM (inactive) | GI50 [15]: 73.3 µM (inactive) | GI50 [16]: 43.5 µM (inactive) | GI50 [17]: 95.5 µM (inactive) | GI50 [18]: 75.3 µM (inactive) | GI50 [19]: 34.8 µM (inactive) | GI50 [20]: 59.8 µM (inactive) | GI50 [21]: 86.5 µM (inactive) | GI50 [22]: 51.1 µM (inactive) | GI50 [23]: 70 µM (inactive) | GI50 [24]: 36.4 µM (inactive) | GI50 [25]: > 100 µM (inactive) | GI50 [26]: 94.6 µM (inactive) | GI50 [27]: 25.1 µM (inactive) | GI50 [57]: > 100 µM (inactive) | GI50 [28]: > 100 µM (inactive) | GI50 [29]: > 100 µM (inactive) | GI50 [30]: 63.4 µM (inactive) | GI50 [31]: 16.7 µM (inactive) | GI50 [32]: 30.5 µM (inactive) | GI50 [33]: 45.6 µM (inactive) | GI50 [34]: 49.5 µM (inactive) | GI50 [35]: > 100 µM (inactive) | GI50 [36]: 45 µM (inactive) | GI50 [37]: 55.6 µM (inactive) | GI50 [38]: 36.7 µM (inactive) | GI50 [39]: 49.2 µM (inactive) | GI50 [40]: > 100 µM (inactive) | GI50 [41]: 29.8 µM (inactive) | GI50 [58]: > 100 µM (inactive) | GI50 [42]: 92.5 µM (inactive) | GI50 [43]: > 100 µM (inactive) | GI50 [44]: 66.7 µM (inactive) | GI50 [45]: 31.3 µM (inactive) | GI50 [46]: > 100 µM (inactive) | GI50 [47]: > 100 µM (inactive) | GI50 [48]: 34 µM (inactive) | GI50 [49]: 33.2 µM (inactive) | GI50 [50]: 80.2 µM (inactive) | GI50 [51]: 30.8 µM (inactive) | GI50 [52]: > 100 µM (inactive) | GI50 [53]: 62.5 µM (inactive) | GI50 [54]: > 100 µM (inactive) | GI50 [55]: 39.1 µM (inactive) | GI50 [56]: 27.7 µM (inactive)

Oc1ccc(-c2nc3ccccc3s2)cc1
GI50 [1]: 27.1 µM (inactive) | GI50 [2]: 47.4 µM (inactive) | GI50 [3]: 41.3 µM (inactive) | GI50 [4]: 45.8 µM (inactive) | GI50 [5]: 50.2 µM (inactive) | GI50 [6]: 29.2 µM (inactive) | GI50 [7]: 26.2 µM (inactive) | GI50 [8]: 45.1 µM (inactive) | GI50 [9]: 33.1 µM (inactive) | GI50 [10]: 21.5 µM (inactive) | GI50 [12]: 22.4 µM (inactive) | GI50 [13]: 36 µM | GI50 [14]: 30.3 µM (inactive) | GI50 [15]: 37 µM (inactive) | GI50 [59]: 35.9 µM (inactive) | GI50 [16]: 42.3 µM (inactive) | GI50 [17]: 37.7 µM (inactive) | GI50 [18]: 25.7 µM (inactive) | GI50 [19]: 29 µM (inactive) | GI50 [20]: 21.1 µM (inactive) | GI50 [21]: 21.4 µM (inactive) | GI50 [22]: 44.2 µM (inactive) | GI50 [23]: 33.6 µM (inactive) | GI50 [24]: 29.2 µM (inactive) | GI50 [25]: 37.2 µM (inactive) | GI50 [26]: 32.9 µM (inactive) | GI50 [27]: 25.8 µM (inactive) | GI50 [57]: 47.3 µM (inactive) | GI50 [28]: 43.3 µM (inactive) | GI50 [29]: 25.2 µM (inactive) | GI50 [30]: 38.1 µM (inactive) | GI50 [31]: 15.5 µM (inactive) | GI50 [32]: 31.8 µM (inactive) | GI50 [33]: 34.5 µM (inactive) | GI50 [34]: 48.1 µM (inactive) | GI50 [35]: 49.8 µM (inactive) | GI50 [36]: 30.6 µM (inactive) | GI50 [37]: 32.1 µM (inactive) | GI50 [38]: 27.1 µM (inactive) | GI50 [39]: 24 µM (inactive) | GI50 [40]: 31.5 µM (inactive) | GI50 [41]: 37.5 µM (inactive) | GI50 [58]: 47.8 µM (inactive) | GI50 [42]: 53.3 µM (inactive) | GI50 [43]: 20.4 µM (inactive) | GI50 [45]: 32.1 µM (inactive) | GI50 [46]: 38 µM (inactive) | GI50 [47]: 55.1 µM (inactive) | GI50 [48]: 37.4 µM (inactive) | GI50 [49]: 32.7 µM (inactive) | GI50 [50]: 65.5 µM (inactive) | GI50 [51]: 21.5 µM (inactive) | GI50 [53]: 42.4 µM (inactive) | GI50 [54]: 31 µM (inactive) | GI50 [55]: 32.4 µM (inactive) | GI50 [56]: 51.5 µM (inactive)
